Key:
[1] = stability of ascorbic acid in the cream, UV determination at 266.5 nm; assay type: physicochemical; details: cream of Example 3, 4 months at room temperature then 45° C. for one month
Protocol: The stability of the ascorbic acid contained in the cream was determined as follows.
A series of samples of the cream contained in the said small plastic jars was kept for a period of 4 months at room temperature and then in an oven at 45° C. for one month, after which the ascorbic acid content of the cream was checked.
In order to determine the ascorbic acid content, 100 mg of cream were diluted in 100 ml of 0.1 M phosphate buffer at pH 6, and the thus obtained suspension was magnetically stirred in the dark for 20 minutes. Thereafter, 30 ml of the suspension were transferred to a 50 ml centrifuge tube and 15 ml of chloroform were added. The tube was shaken for 10 minutes and then centrifuged at 6000 rpm for 5 minutes. The upper aqueous phase was directly analyzed with a UV Vis Jasco V-350 spectrophotometer, using phosphate buffer as a blank and the ascorbic acid peak at 266.5 nm was measured.
The ascorbic acid concentration was determined by means of a calibration curve made from standard solutions containing 1.0, 1.5 and 2.0 mg ascorbic acid/100 ml phosphate buffer.

[2] = stability test of the cream, twelve weeks at 45° C., viscosity check and HPLC content; assay type: physicochemical; details: cream of Example 1, twelve weeks at 45° C.; nominal tocopherol 5, Greenselect 0.5, Leucoselect 0.5
Protocol: The cream was packed in plastics containers of 50 ml and subjected to a test to confirm the stability. A series of samples of the cream contained in the said small plastic jars was kept in an oven at 45° C. for twelve weeks, after which the viscosity of the cream was checked and found unaltered with respect to the starting value.
In addition there was the verification of the amount of polyphenols and vitamin E present in the cream at the end of the twelve weeks at 45° C., by means of an HPLC method, using a Macherey-Nagel column, Nucleosil 100-5 C18, packed with 5 μm particles (150×4.6 mm internal diameter), and a pre-column system Nucleosil 100-5 C18, CC 8/4.
The determination of free tocopherol, carried out using methanol as the eluent in isocratic conditions, with a flow rate of 1 ml/min and λ 290 nm, gave a value of 5.2%.
The determination of the polyphenol concentration in the cream was carried out using a mobile phase in binary gradient as eluent, composed of: phase A=0.3% formic acid in water and phase B=methanol; flow rate 1 ml/min; λ=278 nm. In such conditions the Greenselect® has a retention time Rt=22.84 min and the Leucoselect® Rt=6.53 min.

SMILES | ascorbic acid lost by the end of the storage period [1] [%] | ascorbic acid concentration from the calibration curve ([1]; nominal 2 mg/100 ml) [mg/100 ml] | amount present in the cream at the end of storage (HPLC) [2] [%]
O=C1O[C@H]([C@@H](O)CO)C(O)=C1O [ascorbic acid, Ascorbic acid] | 7.8 | 1.844 | 
Cc1c(C)c2c(c(C)c1O)CC[C@@](C)(CCC[C@H](C)CCC[C@H](C)CCCC(C)C)O2 [free tocopherol, Tocopherol] |  |  | 5.2
